The record followed here is patent publication US10464947B2 (Incyte Corporation, priority 2013, dated 2019).

Experiment [1] addresses T1, BRD4-BD1 (Homo sapiens (Human), UniProt O60885). Briefly: BRD4 AlphaScreen Assay (Example A1), BRD4-BD1. In kind it is binding. Conditions: H4Ac4 peptide, 3.8 nM BRD4-BD1, read-out: BRD4 BD-1 enzyme IC50. On the procedure:
(§1) BRD4-BD1 and BRD4-BD2 assays were conducted in white 384-well polystyrene plate in a final volume of 20 μL for BD1 and 40 μL for BD2. Inhibitors were first serially diluted in DMSO and added to the plate wells before the addition of other reaction components. […] After plate sealing, the plate was incubated in the dark at room temperature for 75 min. before reading on a PHERAstar FS plate reader (BMG Labtech). IC50 determination was performed by fitting the curve of percent control activity versus the log of the inhibitor concentration using the GraphPad Prism 5.0 software.

Experiment [2] concerns the target T2, BRD4-BD2 (Homo sapiens (Human), UniProt O60885). Briefly: BRD4 AlphaScreen Assay (Example A1), BRD4-BD2. The following applies: H4Ac4 peptide, 20 nM BRD4-BD2, read-out: BRD4 BD-2 enzyme IC50. It counts as binding. As to the method:
as §1
On the technique in general: In Alpha technology, singlet oxygen from a donor bead excites a nearby acceptor bead.

A further experiment relates to KMS.12.BM cells. Kind of experiment: KMS.12.BM Cell Viability Assay (Example B1). In kind it is cell-based, human. The following applies: 3 days, Cell Titer-GLO, read-out: KMS cellular IC50. Summed up: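 KMS.12.BM human myeloma cells, 5000 cells/well in RPMI with 10% FBS, exposed to a compound concentration range for 3 days. Viable cells measured by ATP-based Cell Titer-GLO luminescence after 10 min at room temperature.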
A general note: In ATP-based viability assays light output follows the ATP content of the culture.

Another experiment deals with C-myc in KMS.12.BM cells. Briefly: KMS.12.BM C-Myc ELISA Assay (Example C1). In kind it is cell-based. The following applies: Homo sapiens, 2 h. As to the method:
KMS.12.BM C-Myc ELISA Assay
KMS.12.BM cell line (human myeloma) was purchased from JCRB (Osaka, Japan) and maintained in RPMI with 10% FBS culture medium. To measure the C-myc inhibitory activity of the compounds, the KMS.12.BM cells are plated in the RPMI culture medium at 75000 cells/well/per 200 μL into a 96-well flat bottom polystyrene tissue culture plate (Corning through VWR, NJ), in the presence or absence of a concentration range of test compounds. After 2 h, cells are pelleted and lysed with Cell Extraction Buffer (BioSource, Carlsbad, Calif.) in the presence of protease inhibitors (Life Technologies, Grand Island, N.Y. and Sigma, St Louis, Mo.). Clarified lyses are tested in a C-myc commercial ELISA (Life Technologies, Grand Island, N.Y.).
(In general: An ELISA detects its analyte on a solid surface through an enzyme-linked reagent.)

Experiment [3] addresses T1, BRD4-BD1. Kind of experiment: BRD4 AlphaScreen Assay (Example A2), BRD4-BD1. Conditions: read-out: BRD4 BD-1 enzyme IC50. In kind it is binding. On the procedure: as §1, with “40” for “20”, “60” for “40”, “components. […] The assays were carried out at room temperature in the assay buffer (50 mM Tris-HCl, pH 7.5, 0.01% Tween-20, 0.01% BSA, 5 mM DTT), containing 50 nM Biotin-labeled tetra-acetylated histone H4 peptide (H4Ac4) and BRD4-BD1 or BRD4-BD2 protein at concentration less than 1 nM.” for “components.”

The target of experiment [4] is T2, BRD4-BD2. Briefly: BRD4 AlphaScreen Assay (Example A2), BRD4-BD2. It counts as binding. The following applies: read-out: BRD4 BD-2 enzyme IC50. As to the method: as §1, with “40” for “20”, “60” for “40”, “components. […] The assays were carried out at room temperature in the assay buffer (50 mM Tris-HCl, pH 7.5, 0.01% Tween-20, 0.01% BSA, 5 mM DTT), containing 50 nM Biotin-labeled tetra-acetylated histone H4 peptide (H4Ac4) and BRD4-BD1 or BRD4-BD2 protein at concentration less than 1 nM.” for “components.”

Where two headings read alike, the source gives them in different places.

As for `Cc1noc(C)c1-c1ccc2[nH]c(=O)n3c2c1OCC3c1ccccc1` (single isomer, unassigned) [Example 1A, 7-(3,5-Dimethylisoxazol-4-yl)-4-phenyl-4,5-dihydroimidazo[1,5,4-de][1,4]benzoxazin-2(1H)-one], the half-inhibitory concentration (IC50) on BRD4-BD1 [1] was at most 100 nM; at BRD4-BD2 [2] it was at most 100 nM; in the experiment with KMS.12.BM cells it was under 1000 nM; in the experiment on C-myc in KMS.12.BM cells it was under 1000 nM.

On to `Cc1noc(C)c1-c1ccc2[nH]c(=O)n3c2c1OCC3c1ccccc1` (single isomer, unassigned) [Example 1B, 7-(3,5-Dimethylisoxazol-4-yl)-4-phenyl-4,5-dihydroimidazo[1,5,4-de][1,4]benzoxazin-2(1H)-one], for which the IC50 at BRD4-BD1 [1] and on BRD4-BD2 [2] was 100 to 1000 nM throughout.

For the molecule `Cc1noc(C)c1-c1ccc2[nH]c(=O)n3c2c1OCC3c1cccnc1C(=O)NCCO` (single isomer, unassigned) [Example 135, 3-[7-(3,5-Dimethylisoxazol-4-yl)-2-oxo-1,2,4,5-tetrahydroimidazo[1,5,4-de][1,4]benzoxazin-4-yl]-N-(2-hydroxyethyl)pyridine-2-carboxamide], the half-maximal inhibitory concentration (IC50) at BRD4-BD1 [3] is under 100 nM; at BRD4-BD2 [4] it was under 100 nM; in the experiment with KMS.12.BM cells (Homo sapiens, 72 h) it was under 1000 nM; in the experiment on C-myc in KMS.12.BM cells, under 1000 nM.

`Cc1noc(C)c1-c1ccc2[nH]c(=O)n3c2c1OCC3c1cccnc1C(=O)NCC(F)(F)F` (single isomer, unassigned) [Example 136, 3-[7-(3,5-dimethylisoxazol-4-yl)-2-oxo-1,2,4,5-tetrahydroimidazo[1,5,4-de][1,4]benzoxazin-4-yl]-N-(2,2,2-trifluoroethyl)pyridine-2-carboxamide]: the half-maximal inhibitory concentration (IC50) is under 100 nM on BRD4-BD1 [3]; under 100 nM at BRD4-BD2 [4]; under 1000 nM in the experiment with KMS.12.BM cells (Homo sapiens, 72 h); under 1000 nM in the experiment on C-myc in KMS.12.BM cells.

In general, IC50 refers to the concentration that inhibits the measured activity by half.
